A value given as a limit tells only on which side of the number the result lay.

Series [1] in a line: Weight gain of rats during treatment. In kind it is in vivo, rat. The note with it: daily i.p. treatment. As for the experimental part: (§1) Behavioral testing was applied to a cohort of 12 rats. Following 7 days of daily i.p. treatment with i) vehicle (10% DMSO, 10% Tween 80, 80% saline; 2 mL/kg); or solubilized ii) the compound of Example 2 (0.025 mg/kg) or iii) the compound of Example 2 (0.1 mg/kg), rats were exposed to the modified forced swim test (FST). Briefly, FST exposure (15 min exposure, 25° C. tap water, 30 cm water depth) was performed 18-24 h after the previous i.p. treatment, after which rats were returned to their home cages to dry for approximately 2-3 h, then given daily i.p. treatment as before. FST testing was performed one day later (5 min test, 25° C. tap water, 30 cm water depth) with behaviors digitally recorded for subsequent analysis of immobility by a trained reviewer, blinded to treatment groups. Rats were returned to home cages and monitored without treatment for 72 h. […] Animals were then evaluated for locomotor activity in an open field (60 cm square) using automated tracking software (MedAssociates).
(§2) Rats were exposed to a 15 min session of forced swimming in 25° C. water (20 cm diameter cylinder, 30 cm water depth). […] After 1 day, rats were tested for immobility time during 5-min FST sessions which were videotaped and scored by a trained observer blinded to treatment groups.

The next series has as its system rats. Briefly: Forced swim test. Type of series: in vivo, rat. The settings on record: 0.1 mg/kg i.p., against vehicle-treated controls, 5-min FST session. As for the experimental part: as §1, §2
A short description of series [2]: Intraperitoneal pharmacokinetics and brain distribution assay. Type of series: in vivo, male Sprague Dawley rats. The settings on record: single i.p. dose 1 mg/kg. The protocol: Healthy male Sprague Dawley rats (8-12 weeks old) weighing between 200 to 250 g were procured from Tina Labs, Hyderabad, India. Three rats were housed in each cage. Temperature and humidity were maintained at 22±3° C. and 40-70%, respectively and illumination was controlled to give a sequence of 12 hr light and 12 hr dark cycle. Temperature and humidity were recorded by auto-controlled data logger system. All the animals were provided laboratory rodent diet (Vetcare India Pvt. Ltd, Bengaluru) ad libitum. Reverse osmosis water treated with ultraviolet light was provided ad libitum.
Twenty one male Sprague Dawley rats were intraperitoneally administered with a solution formulation of the compound of Example 2 prepared in 10% DMSO, 10% Tween 80, and 80% normal saline. The blood samples were collected from a set of three rats at each time point in labeled micro centrifuge tube containing K2EDTA solution as anticoagulant. Plasma samples were separated by centrifugation of whole blood and stored at below −70° C. until bioanalysis. After collection of blood samples at each time point animals, were humanely euthanized by CO2 and the brain was collected. Brain samples were homogenized using ice-cold phosphate buffer saline (pH=7.4) and homogenates were stored at below −70° C. until analysis. Total homogenate volume was three times the brain weight. All samples were processed for analysis by protein precipitation using acetonitrile and analyzed with fit-for-purpose LC-MS/MS method (Lower Limits of Quantitation (LLOQ)=2.01 ng/mL in plasma and 1.01 ng/mL in brain). Pharmacokinetic parameters were calculated using the non-compartmental analysis tool of Phoenix WinNonlin® (Version 6.3).
The intraperitoneal solution formulation concentration was 0.1 mg/mL. The weighed quantity (7.02 mg) of (E)-3-(4-((((3r,5r,7r)-adamantan-1-ylmethyl)(methyl)amino)methyl)phenyl)-N-(2-aminophenyl)acrylamide was added in a labeled bottle. DMSO (7.02 mL) was added to dissolve the compound, followed by addition of Tween 80 (7.02 mL) and the solution was mixed by vortexing. Next, normal saline was added (56.16 mL) and the resulting solution was mixed by vortexing. The solution formulation was sonicated for 2 minutes to obtain a clear and transparent solution.
The blood samples were collected from set of three rats at each time point in labeled micro centrifuge tube containing K2EDTA solution as anticoagulant at time points of 0.08, 0.5, 1, 2, 4, 6, 8 & 24 hours. […]
Concentrations of the compound of Example 2 in rat plasma and brain samples were analyzed with fit-for-purpose by LC-MS/MS method. […] Following centrifugation, 100 µL of clear supernatant was transferred a 96-well plate and analyzed using LC-MS/MS. […]

In general, Tmax refers to the time at which the peak concentration occurs. Regarding `CN(Cc1ccc(/C=C/C(=O)Nc2ccccc2N)cc1)CC12CC3CC(CC(C3)C1)C2` [Example 2, (E)-3-(4-((((3r,5r,7r)-adamantan-1-ylmethyl)(methyl)amino)methyl)phenyl)-N-(2-aminophenyl)acrylamide], the “average weight gain of tested rats” value in series [1] is on record as “not impacted”. Moreover, in the series on rats, the “decrease in FST immobility scores” value was 17%. Also, in series [2] (male, Sprague Dawley, rat, brain/plasma, ip, read-out: Brain-to-plasma exposure ratio), the Kp is 20.6. Besides, the Tmax in series [2] (male, Sprague Dawley, rat, plasma, ip) turned out to be 30 min. For the same molecule, in series [2] (brain (2 animals), LLOQ 1.01 ng/mL), the “brain concentrations quantifiable up to” value is recorded as not above 24 h. Moreover, in series [2] (plasma (2 animals), LLOQ 2.01 ng/mL), the “plasma concentrations quantifiable up to” value is reported as “up to 8 h”.

The record behind these values is patent US20170349540A1, “HISTONE DEACETYLASE INHIBITORS” (The General Hospital Corporation, priority 2014, published 2017).
